What was measured:
Gelatinase (MMP-2) = biological target: T1, Gelatinase (MMP-2) (Homo sapiens, UniProt P08253); test: Gelatinase (MMP-2) inhibitory activity, fluorogenic peptide substrate cleavage; assay type: biochemical; details: read-out: MMP02 IC50
T1 sequence (P08253 110-660): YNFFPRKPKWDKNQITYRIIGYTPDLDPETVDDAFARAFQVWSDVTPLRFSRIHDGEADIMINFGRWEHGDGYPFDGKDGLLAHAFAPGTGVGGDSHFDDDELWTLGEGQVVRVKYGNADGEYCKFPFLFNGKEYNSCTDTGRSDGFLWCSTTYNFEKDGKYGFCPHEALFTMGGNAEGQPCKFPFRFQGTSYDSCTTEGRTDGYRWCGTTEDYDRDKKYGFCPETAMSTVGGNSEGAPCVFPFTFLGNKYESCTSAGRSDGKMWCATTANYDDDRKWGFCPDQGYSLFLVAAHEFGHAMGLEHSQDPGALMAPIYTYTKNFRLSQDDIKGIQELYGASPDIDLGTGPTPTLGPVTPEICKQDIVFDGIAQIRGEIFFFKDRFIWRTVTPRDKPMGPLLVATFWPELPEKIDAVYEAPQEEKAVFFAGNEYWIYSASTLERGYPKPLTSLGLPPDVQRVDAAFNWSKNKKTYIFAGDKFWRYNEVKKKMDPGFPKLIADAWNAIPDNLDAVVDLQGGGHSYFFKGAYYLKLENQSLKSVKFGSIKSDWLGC
Procedure, shortened: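 Fluorogenic assay with MCA-Lys-Pro-Leu-Gly-Leu-Dpa-Ala-Arg-NH2 at 5 μM in Tris-Cl pH 7.5 buffer with ZnCl2, CaCl2, Brij-35 and 1.0% DMSO, 20-25 °C. Enzyme preincubated with inhibitor 60 min; fluorescence (ex 325/em 405 nm) read 60 min after substrate addition. IC50 relative to uninhibited control.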

Collagenase-3 (MMP-13) = Collagenase-3 (MMP-13) (Homo sapiens, UniProt P45452); test: Collagenase-3 (MMP-13) inhibitory activity, fluorogenic peptide substrate cleavage; assay type: biochemical; details: read-out: MMP13 IC50
Procedure, shortened: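 Recombinant pro-MMP-13 activated with 1 mM APMA; inhibitor preincubated 60 min, then 5 μM MCA-Lys-Pro-Leu-Gly-Leu-Dpa-Ala-Arg-NH2 added in Tris-Cl pH 7.5 buffer with Zn2+, Ca2+, Brij-35, 1.0% DMSO, 20-25 °C. Fluorescence (ex 325/em 405 nm) read after 60 min; IC50 versus uninhibited control.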

Row | Structure (SMILES) | IC50 (Gelatinase (MMP-2)) [µM] | IC50 (Collagenase-3 (MMP-13)) [µM] | melting point [°C]
1 | NS(=O)(=O)c1cc(C(=O)c2ccc(-c3ccc4ccccc4c3)cc2)ccc1Cl [Example 38, 2-Chloro-5-(4-naphthalen-2-yl-benzoyl)-benzenesulfonamide] | 14.5 | 8.58 | 193 to 195
2 | NS(=O)(=O)c1cc(C(=O)c2ccc(-c3cccnc3)cc2)ccc1Cl [Example 41, 2-Chloro-5-(4-pyridin-3-yl-benzoyl)-benzenesulfonamide] | > 9 | 7.52 | 190 to 192
3 | NS(=O)(=O)c1cc(C(=O)c2ccc(O)c(F)c2)ccc1Cl [Example 47, 2-Chloro-5-(3-fluoro-4-hydroxy-benzoyl)-benzenesulfonamide] | 17.3 | 11.1 | 206 to 208
4 | NS(=O)(=O)c1cc(C(=O)c2ccc(O)cc2F)ccc1Cl [Example 50, 2-Chloro-5-(2-fluoro-4-hydroxy-benzoyl)-benzenesulfonamide] | 24.3 | 21.3 | 183 to 185
5 | NS(=O)(=O)c1cc(C(=O)c2ccc(C(=O)N3CCCC3)cc2)ccc1Cl [Example 53, 2-Chloro-5-[4-(pyrrolidine-1-carbonyl)-benzoyl]-benzenesulfonamide] | > 30 | > 30 | 146 to 148
6 | Cc1cccc(-c2ccc(C(=O)c3ccc(Cl)c(S(N)(=O)=O)c3)cc2)c1 [Example 60, 2-Chloro-5-(3′-methyl-biphenyl-4-carbonyl)-benzenesulfonamide] | 6.31 | 5.44 | 176 to 178
7 | Nc1cccc(-c2ccc(C(=O)c3ccc(Cl)c(S(N)(=O)=O)c3)cc2)c1 [Example 69, 5-(3′-Amino-biphenyl-4-carbonyl)-2-chloro-benzenesulfonamide] | 1.37 | 2.41 | 228 to 230
8 | NS(=O)(=O)c1cc(C(=O)c2ccc(-c3cccc(C(F)(F)F)c3)cc2)ccc1Cl [Example 75, 2-Chloro-5-(3′-trifluoromethyl-biphenyl-4-carbonyl)-benzenesulfonamide] | > 30 | 25.9 | 75 to 77
9 | NS(=O)(=O)c1cc(C(=O)c2ccc3c(c2)CCN3)ccc1Cl [Example 110, 2-Chloro-5-(2,3-dihydro-1H-indole-5-carbonyl)-benzenesulfonamide] | 12 | 16.1 | 55 to 56
10 | NS(=O)(=O)c1cc(C(=O)c2ccc3[nH]ccc3c2)ccc1Cl [Example 116, 2-Chloro-5-(1H-indole-5-carbonyl)-benzenesulfonamide] | 15.4 | 15.3 | 65 to 66
